The results in this text go back to paper PMC10880116, “Identification of potential anti-inflammatory components in Moutan Cortex by bio-affinity ultrafiltration coupled with ultra-performance liquid chromatography mass spectrometry” (Frontiers in Pharmacology, 2024).

By IC50 is commonly meant the midpoint of a concentration-inhibition curve.

The target in data set [1] is T1, COX-2 (Homo sapiens, UniProt P35354).
T1 sequence (P35354 18-604): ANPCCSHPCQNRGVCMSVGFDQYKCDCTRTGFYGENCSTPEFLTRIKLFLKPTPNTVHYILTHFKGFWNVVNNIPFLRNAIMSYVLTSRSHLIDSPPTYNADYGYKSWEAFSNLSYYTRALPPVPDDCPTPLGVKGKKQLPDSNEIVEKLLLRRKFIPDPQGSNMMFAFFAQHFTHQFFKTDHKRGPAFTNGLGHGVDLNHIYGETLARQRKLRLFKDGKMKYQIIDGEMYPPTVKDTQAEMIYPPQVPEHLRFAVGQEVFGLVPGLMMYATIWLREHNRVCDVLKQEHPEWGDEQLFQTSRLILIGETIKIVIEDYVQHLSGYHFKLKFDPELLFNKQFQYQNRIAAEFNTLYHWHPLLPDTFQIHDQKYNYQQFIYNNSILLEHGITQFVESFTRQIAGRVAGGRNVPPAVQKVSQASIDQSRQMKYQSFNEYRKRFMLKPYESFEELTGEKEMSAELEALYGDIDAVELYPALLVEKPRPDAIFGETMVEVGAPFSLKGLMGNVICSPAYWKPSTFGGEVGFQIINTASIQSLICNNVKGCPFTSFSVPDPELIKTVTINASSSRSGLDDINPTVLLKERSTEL
The data set can be described thus: COX-2 inhibitory activity (COX-2 Inhibitor Screening Kit, fluorescence).
Procedure: In this experiment, the inhibitory effect was determined by using COX-2 Inhibitor Screening Kits. A 96-well black plate was employed, where COX-2 cofactor working solution (5 μL), COX-2 assay buffer (75 μL), test solution (5 μL), and COX-2 working solution (5 uL) were mixed and incubated for 10 min at 37°C in the dark. Then 5 μL of probe solution, together with 5 μL of COX-2 substrate solution, was added immediately. After a 37°C incubation in the dark for another 5 min, the fluorescence value was determined at an excitation wavelength of 560 nm and emission wavelength of 590 nm. […] Besides, COX-2 Assay Buffer was used in the blank control group to replace COX-2 working solution. MC extract or potential inhibitors were dissolved with DMSO as the test solution in the sample groups.
Where, F1, F2, and F3 respectively indicate the fluorescence value of the three groups—100% enzyme activity control group, sample group and blank control group.

Another data set relates to RAW264.7 cells. The data set can be described thus: Cell viability assay (MTT). It is filed as cell-based, mouse. The conditions noted are these: 12 h. The protocol: RAW264.7 cells originated from mouse macrophage cell line were purchased from the American Type Culture Collection. DMEM medium containing 5% fetal bovine serum and 1% Penicillin G Streptomycin was used to culture the cells under 37°C in a humidified atmosphere of 5% CO2.
Then DEME with 20% MTT solution was added, followed by a 37°C incubation for extra 4 h. After the supernatant was removed, DMSO was added to dissolve the insoluble formazan product. The optical density was measured by a microplate reader at 490 nm. In this experiment, the formula used to calculate cell viability was as follows: Cell viability %=ODexperimental group– ODblank group/ODcontrol group– ODblank group×100%

Data set [2] has as its target T1, COX-2. The conditions noted are these: 20 μM, mixture of positive and negative control, affinity ultrafiltration.
Procedure: An experimental group and inactivated enzyme group were set up in this study for comparison. 40 μL of 100 mg/mL MC extract as well as 280 μL of COX-2 (100 U/mL) was transferred to EP tube in the experimental group, in contrast to the control group where 280 μL of inactivated COX-2 (boiled in the water bath for 30 min) was used as the substitute of the activated enzyme. The tubes from both groups were incubated at 37°C in the dark for 40 min, aiming to create an optimal condition under which the potentially suitable ligands would completely combined with the enzyme. A centrifugal filter was employed for ultrafiltration at 15000 × g for 15 min. Afterwards, 300 μL of PBS was added to the samples, and the unbound small molecules were removed by 15000 × g centrifugation for 15 min. […]
UPLC-Q-Exactive-Orbitrap-MS was performed to analyze the compounds in the filtrate using Thermo Scientific Orbitrap Fusion Tribrid Mass Spectrometer (Thermo Fisher Scientific, United States) and Ultimate 3,000 Ultra-performance liquid chromatograph, at the same time with Waters ACQUITY UPLC BEH RP18 (2.1 mm × 100 mm, 1.7 μm) employed for chromatographic analysis. […] The measurements were read at the detection wavelength of 254 nm. […] By comparing peak areas of two groups, specific ligands binding to COX-2 were determined. […]

SMILES strings stand for the structures.

As for `O=C(O)c1cc(O)c(O)c(O)c1` [Gallic acid], on COX-2 [1], the IC50 came to 1520 µM. In addition, in the data set with RAW264.7 cells (MTT), the “Concentration exhibiting no cytotoxicity against RAW264.7 cells” value (“Concentration exhibiting no cytotoxicity” for short) is not above 250 µM. On the same counts, the results for `C[C@@]12C[C@@]3(O)O[C@@H](O1)[C@]1(COC(=O)c4ccccc4)[C@H]3C[C@@]12O[C@@H]1O[C@H](COC(=O)c2cc(O)c(O)c(O)c2)[C@@H](O)[C@H](O)[C@H]1O` [Galloylpaeoniflorin] are 6.68 ± 1.29 µM and not above 100 µM. Taken in the same sequence, the figures for `COC(=O)c1cc(O)c(O)c(O)c1` [Methyl gallate] were 12.1 µM and not above 10 µM. As to `O=C(OC[C@H]1O[C@@H](OC(=O)c2cc(O)c(O)c(O)c2)[C@H](OC(=O)c2cc(O)c(O)c(O)c2)[C@@H](OC(=O)c2cc(O)c(O)c(O)c2)[C@@H]1OC(=O)c1cc(O)c(O)c(O)c1)c1cc(O)c(O)c(O)c1` [PGG, 1,2,3,4,6-Penta-O-galloyl-β-D-glucopyranose], half-maximal inhibition at COX-2 [1] (IC50) required 220 µM. Besides, in the data set on RAW264.7 cells (mouse), the “Concentration exhibiting no cytotoxicity” value is not above 150 µM. `O=C(OC[C@H]1O[C@@H](OC(=O)c2cc(O)c(O)c(O)c2)[C@H](OC(=O)c2cc(O)c(O)c(O)c2)[C@@H](OC(=O)c2cc(O)c(O)c(O)c2)[C@@H]1O)c1cc(O)c(O)c(O)c1` [TGG, 1,2,3,6-Tetra-O-galloyl-β-D-glucose]: 1.04 µM corresponded to half-maximal inhibition on COX-2 [1] (IC50). For the same compound, the “Concentration exhibiting no cytotoxicity” value in the data set on RAW264.7 cells (MTT) was not above 20 µM. On to `Nc1ncnc2c1ncn2[C@@H]1O[C@H](CO)[C@@H](O)[C@H]1O` [adenosine, Adenosine], for which the “Response value (HPLC peak) in active enzyme group compared with inactivated enzyme control group” value at COX-2 [2] is on record as “no evident change”.
